Reference: BigSolDB 2.1

CN1CCC(N(Cc2cccs2)c2ccccc2)CC1
solubility (mole fraction)
Details	278.15 K	283.15 K	288.15 K	293.15 K	298.15 K	303.15 K	308.15 K	313.15 K	318.15 K	323.15 K
in DMF	0.00706	0.00795	0.00881	0.00971	0.0108	0.0119	0.0132	0.0143	0.0158	0.0175
in water	2.63e-05	2.84e-05	3.06e-05	3.36e-05	3.72e-05	4.16e-05	4.62e-05	5.09e-05	5.66e-05	6.3e-05
